One block for each molecule: values may come before it.
Tested on: A375 melanoma cells (B-Raf V600E mutation)
Experiment: A375 (A375_P-ERK) cell activity / cell growth inhibition assay
Format: cell-based, human
Settings: Homo sapiens, A-375; A375 cells (text: A375_P-ERK)
Method: Compounds are assessed in a variety of cell based assays. For example human cell lines with B-RafV600E mutation (A375 melanoma, SKMEL3 melanoma, and COLO205 colon adenocarcinoma), as well as tumorigenic cell lines with wild-type B-RAF (SW620 colon adenocarcinoma) or with Ras mutations (SKMEL2 melanoma and IPC298 melanoma).
On day 1, cells are counted, then centrifuged in a conical tube for 5 minutes at 1000 rpm.
On day 2, compound at a maximum concentration of 5 mM is serially diluted 1:3 (e.g. 10 μL with 30 μL dimethyl sulfoxide) for a total of 8 point titration with DMSO as a control. A 1 μL aliquot of each dilution point and control is added to 249 μL growth media and 50 μL is added to a well containing cells, providing 10 μM compound at the maximum concentration point. The cells are incubated for 3 days at 37° C. in 5% CO2.
ATPlite is added 25 μL to each well, shake for 2 minutes, and the cells are incubated at room temperature for 10 minutes, then luminescence is read on Safire reader. The measured luminescence correlates directly with cell number, such that the reading as a function of compound concentration is used to determine the IC50 value.

IC50: < 1 µM
SMILES: O=C(c1cccc(NS(=O)(=O)N2CCCC2)c1F)c1c[nH]c2ncc(-c3ccccc3)cc12 [P-0063, N-[2-fluoro-3-(5-phenyl-1H-pyrrolo[2,3-b]pyridine-3-carbonyl)phenyl]pyrrolidine-1-sulfonamide]

IC50: < 1 µM
SMILES: CCN(C)S(=O)(=O)Nc1cccc(C(=O)c2c[nH]c3ncc(-c4ccc(C(F)(F)F)nc4)cc23)c1F [P-0059, 3-[3-[[ethyl(methyl)sulfamoyl]amino]-2-fluoro-benzoyl]-5-[6-(trifluoromethyl)-3-pyridyl]-1H-pyrrolo[2,3-b]pyridine]

IC50: < 1 µM
SMILES: Cc1ncc(-c2cnc3[nH]cc(C(=O)c4cccc(NS(=O)(=O)N(C)C)c4F)c3c2)cn1 [P-0097, 3-[3-(dimethylsulfamoylamino)-2-fluoro-benzoyl]-5-(2-methylpyrimidin-5-yl)-1H-pyrrolo[2,3-b]pyridine]

IC50: < 1 µM
SMILES: O=C(c1cccc(NS(=O)(=O)N2CCCC2)c1F)c1c[nH]c2ncc(-c3ccc(F)cc3)cc12 [P-0062, N-[2-fluoro-3-[5-(4-fluorophenyl)-1H-pyrrolo[2,3-b]pyridine-3-carbonyl]phenyl]pyrrolidine-1-sulfonamide]

IC50: < 1 µM
SMILES: O=C(c1cccc(NS(=O)(=O)N2CCCC2)c1F)c1c[nH]c2ncc(-c3ccncc3)cc12 [P-0281, N-[2-fluoro-3-[5-(4-pyridyl)-1H-pyrrolo[2,3-b]pyridine-3-carbonyl]phenyl]pyrrolidine-1-sulfonamide]

IC50: < 1 µM
SMILES: CN(CC1CC1)S(=O)(=O)Nc1cccc(C(=O)c2c[nH]c3ncc(-c4cnc(C5CC5)nc4)cc23)c1F [P-0084, 3-[3-[[cyclopropylmethyl(methyl)sulfamoyl]amino]-2-fluoro-benzoyl]-5-(2-cyclopropylpyrimidin-5-yl)-1H-pyrrolo[2,3-b]pyridine]

IC50: < 1 µM
SMILES: CN1CCN(c2cc(-c3cnc4[nH]cc(C(=O)c5c(F)ccc(NS(=O)(=O)N6CCCC6)c5F)c4c3)ccn2)CC1 [P-0285, N-[2,4-difluoro-3-[5-[2-(4-methylpiperazin-1-yl)-4-pyridyl]-1H-pyrrolo[2,3-b]pyridine-3-carbonyl]phenyl]pyrrolidine-1-sulfonamide]

IC50: < 1 µM
SMILES: COc1ncc(-c2cnc3[nH]cc(C(=O)c4cccc(NS(=O)(=O)N5CCCC5)c4F)c3c2)c(OC)n1 [P-0044, N-[3-[5-(2,4-dimethoxypyrimidin-5-yl)-1H-pyrrolo[2,3-b]pyridine-3-carbonyl]-2-fluoro-phenyl]pyrrolidine-1-sulfonamide]

IC50: > 1 µM
SMILES: CCCNS(=O)(=O)Nc1cccc(C(=O)c2c[nH]c3ncc(-c4cnc(C5CC5)nc4)cc23)c1F [P-0251, [5-(2-cyclopropylpyrimidin-5-yl)-1H-pyrrolo[2,3-b]pyridin-3-yl]-[2-fluoro-3-(propylsulfamoylamino)phenyl]methanone]

IC50: < 1 µM
SMILES: CC1CCN(S(=O)(=O)Nc2cccc(C(=O)c3c[nH]c4ncc(-c5cnc(C6CC6)nc5)cc34)c2F)C1 (stereo not drawn) [P-0247, N-[3-[5-(2-cyclopropylpyrimidin-5-yl)-1H-pyrrolo[2,3-b]pyridine-3-carbonyl]-2-fluoro-phenyl]-3-methyl-pyrrolidine-1-sulfonamide]

IC50: < 1 µM
SMILES: Cc1ncc(-c2cnc3[nH]cc(C(=O)c4cccc(NS(=O)(=O)N5CCCC5)c4F)c3c2)cn1 [P-0092, N-[2-fluoro-3-[5-(2-methylpyrimidin-5-yl)-1H-pyrrolo[2,3-b]pyridine-3-carbonyl]phenyl]pyrrolidine-1-sulfonamide]

IC50: < 1 µM
SMILES: N#Cc1ccc(-c2cnc3[nH]cc(C(=O)c4cccc(NS(=O)(=O)N5CCCC5)c4F)c3c2)cn1 [P-0094, N-[3-[5-(6-cyano-3-pyridyl)-1H-pyrrolo[2,3-b]pyridine-3-carbonyl]-2-fluoro-phenyl]pyrrolidine-1-sulfonamide]

IC50: < 1 µM
SMILES: CCN(C)S(=O)(=O)Nc1cccc(C(=O)c2c[nH]c3ncc(-c4ccc(C(C)(C)O)cc4)cc23)c1F [P-0104, 3-[3-[[ethyl(methyl)sulfamoyl]amino]-2-fluoro-benzoyl]-5-[4-(1-hydroxy-1-methyl-ethyl)phenyl]-1H-pyrrolo[2,3-b]pyridine]

IC50: < 1 µM
SMILES: CN(C)S(=O)(=O)Nc1cccc(C(=O)c2c[nH]c3ncc(-c4cncc(C#N)c4)cc23)c1F [P-0098, 5-(5-cyano-3-pyridyl)-3-[3-(dimethylsulfamoylamino)-2-fluoro-benzoyl]-1H-pyrrolo[2,3-b]pyridine]

IC50: < 1 µM
SMILES: O=C(c1c(F)ccc(NS(=O)(=O)N2CCCC2)c1F)c1c[nH]c2ncc(-c3cnc(N4CCC(O)CC4)nc3)cc12 [P-0262, N-[2,4-difluoro-3-[5-[2-(4-hydroxy-1-piperidyl)pyrimidin-5-yl]-1H-pyrrolo[2,3-b]pyridine-3-carbonyl]phenyl]pyrrolidine-1-sulfonamide]

Continued, molecule first:

SMILES: O=C(c1c(F)ccc(NS(=O)(=O)N2CC[C@H](F)C2)c1F)c1c[nH]c2ncc(-c3cnc(C4CC4)nc3)cc12 [P-0289, (3S)—N-[3-[5-(2-cyclopropylpyrimidin-5-yl)-1H-pyrrolo[2,3-b]pyridine-3-carbonyl]-2,4-difluoro-phenyl]-3-fluoro-pyrrolidine-1-sulfonamide]
IC50: < 1 µM

SMILES: CCCNS(=O)(=O)Nc1cccc(C(=O)c2c[nH]c3ncc(I)cc23)c1F [P-0117, [2-fluoro-3-(propylsulfamoylamino)phenyl]-(5-iodo-1H-pyrrolo[2,3-b]pyridin-3-yl)methanone]
IC50: > 1 µM

SMILES: CCN(C)S(=O)(=O)Nc1ccc(F)c(C(=O)c2c[nH]c3ncc(-c4ccc(-c5noc(C)n5)s4)cc23)c1F [P-0310, 3-[5-[3-[3-[[ethyl(methyl)sulfamoyl]amino]-2,6-difluoro-benzoyl]-1H-pyrrolo[2,3-b]pyridin-5-yl]-2-thienyl]-5-methyl-1,2,4-oxadiazole]
IC50: < 1 µM

SMILES: CCN(C)S(=O)(=O)Nc1cccc(C(=O)c2c[nH]c3ncnc(N[C@@H](C)C4CC4)c23)c1F [P-0089, 4-[[(1 S)-1-cyclopropylethyl]amino]-5-[3-[[ethyl(methyl)sulfamoyl]amino]-2-fluoro-benzoyl]-7H-pyrrolo[2,3-d]pyrimidine]
IC50: < 1 µM

SMILES: CCN(C)S(=O)(=O)Nc1ccc(F)c(C(=O)c2c[nH]c3ncc(-c4cccc(C5(C#N)CC5)c4)cc23)c1F [P-0276, 5-[3-(1-cyanocyclopropyl)phenyl]-3-[3-[[ethyl(methyl)sulfamoyl]amino]-2,6-difluoro-benzoyl]-1H-pyrrolo[2,3-b]pyridine]
IC50: < 1 µM

SMILES: CCN(C)S(=O)(=O)Nc1ccc(F)c(C(=O)c2c[nH]c3ncc(-c4cccc(N5CCOCC5)c4)cc23)c1F [P-0259, 4-[3-[3-[3-[[ethyl(methyl)sulfamoyl]amino]-2,6-difluoro-benzoyl]-1H-pyrrolo[2,3-b]pyridin-5-yl]phenyl]morpholine]
IC50: < 1 µM

SMILES: CCN(C)S(=O)(=O)Nc1ccc(F)c(C(=O)c2c[nH]c3ncc(-c4cnc(OC)nc4)cc23)c1F [P-0014]
IC50: < 1 µM

SMILES: CCN(C)S(=O)(=O)Nc1ccc(F)c(C(=O)c2c[nH]c3ncc(-c4cnc(N5CCC5)nc4)cc23)c1F [P-0277, 5-[2-(azetidin-1-yl)pyrimidin-5-yl]-3-[3-[[ethyl(methyl)sulfamoyl]amino]-2,6-difluoro-benzoyl]-1H-pyrrolo[2,3-b]pyridine]
IC50: < 1 µM

SMILES: COCCN(C)S(=O)(=O)Nc1cccc(C(=O)c2c[nH]c3ncc(-c4cnc(OC)nc4)cc23)c1F [P-0073, 3-[2-fluoro-3-[[2-methoxyethyl(methyl)sulfamoyl]amino]benzoyl]-5-(2-methoxypyrimidin-5-yl)-1H-pyrrolo[2,3-b]pyridine]
IC50: < 1 µM

SMILES: CCN(CC)c1ccc(-c2cnc3[nH]cc(C(=O)c4c(F)ccc(NS(=O)(=O)N(C)CC)c4F)c3c2)cc1 [P-0308, 5-[4-(diethylamino)phenyl]-3-[3-[[ethyl(methyl)sulfamoyl]amino]-2,6-difluoro-benzoyl]-1H-pyrrolo[2,3-b]pyridine]
IC50: < 1 µM

SMILES: O=C(c1c(F)ccc(NS(=O)(=O)N2CCCC2)c1F)c1c[nH]c2ncc(F)c(NCC3CC3)c12 [P-0016, N-[3-[4-(cyclopropylmethylamino)-5-fluoro-1H-pyrrolo[2,3-b]pyridine-3-carbonyl]-2,4-difluoro-phenyl]pyrrolidine-1-sulfonamide]
IC50: < 1 µM

SMILES: CCN(C)S(=O)(=O)Nc1ccc(F)c(C(=O)c2c[nH]c3ncc(-c4ccc5nc(N)ncc5c4)cc23)c1F [P-0311, 2-amino-6-[3-[3-[[ethyl(methyl)sulfamoyl]amino]-2,6-difluoro-benzoyl]-1H-pyrrolo[2,3-b]pyridin-5-yl]quinazoline]
IC50: < 1 µM

SMILES: CCC(C)S(=O)(=O)Nc1cccc(C(=O)c2c[nH]c3ncc(-c4cnc(NC5CC5)nc4)cc23)c1F (stereo not drawn) [P-0226, N-[3-[5-[2-(cyclopropylamino)pyrimidin-5-yl]-1H-pyrrolo[2,3-b]pyridine-3-carbonyl]-2-fluoro-phenyl]butane-2-sulfonamide]
IC50: < 1 µM

SMILES: CCN(C)S(=O)(=O)Nc1cccc(C(=O)c2c[nH]c3ncc(-c4cnc(C(C)C)nc4)cc23)c1F [P-0057, 3-[3-[[ethyl(methyl)sulfamoyl]amino]-2-fluoro-benzoyl]-5-(2-isopropylpyrimidin-5-yl)-1H-pyrrolo[2,3-b]pyridine]
IC50: < 1 µM

SMILES: CCN(C)S(=O)(=O)Nc1ccc(F)c(C(=O)c2c[nH]c3ncc(-c4ccc(C(F)(F)F)cc4)cc23)c1F [P-0301, 3-[3-[[ethyl(methyl)sulfamoyl]amino]-2,6-difluoro-benzoyl]-5-[4-(trifluoromethyl)phenyl]-1H-pyrrolo[2,3-b]pyridine]
IC50: < 1 µM

— US11337976B2 (Plexxikon Inc., priority 2011, dated 2022)
